Results from patent US11103474B2, “Pharmaceutical parenteral formulation containing carglumic acid” (RECORDATI INDUSTRIA CHIMICA E FARMACEUTICA S.P.A., priority 2016, dated 2021).

Assay: Preliminary solubility trials (stability of carglumic acid solutions with NaOH, phosphate or HCl)
Format: physicochemical
From the text: Preliminary solubility trials have been performed using carglumic acid solutions buffered at pH from 5.0 to 5.7 with NaOH (0.5 M) or phosphate; the test were not successful since the solutions were not stable and gave an unknown degradation product (with molecular ion at 159 [m+H]+ detected in HPLC-mass-spectrometry) not present in the solution of carglumic acid in water.

stability of solution (buffered at pH from 5.0 to 5.7 with NaOH (0.5 M) or phosphate, unknown degradation product formed): not stable
stability of solution (in HCl 0.5 M, up to 24 hours, two known impurities above the accepted limits): did not result stable
Structure (SMILES): NC(=O)N[C@@H](CCC(=O)O)C(=O)O [carglumic acid, Carglumic acid]
